In PMC10027976, “Phylogeny-guided genome mining of roseocin family lantibiotics to generate improved variants of roseocin” (AMB Express, 2023):
Where no end group is shown, it is not given here.

How the values were obtained:
MSSA ATCC 25923 = experiment: MIC by micro broth-dilution method; type: cell-based, Staphylococcus aureus; settings: for MIC against MSSA ATCC 25923: micro broth-dilution, Mueller Hinton Broth, 2 × 10^5 CFU/mL mixed 1:1 with lantibiotic, BSA-treated 96-well plates, overnight 37 °C, lowest concentration with no visible growth, Rosα (variant) with wild-type Rosβ
Protocol: (§1) The minimum inhibitory concentration of wild-type roseocin and its variants was determined with micro broth-dilution method. Sterile 96-well microtiter plates were treated with 200 µL of 1% (w/v) bovine serum albumin (BSA) in 1 × phosphate-buffered saline (PBS) solution at 37 °C for 30 min. After this, wells were washed with 1 × PBS to remove excess BSA (Ellis et al. [2020]). Log phase culture was diluted with Mueller Hinton Broth (MHB) to obtain 2 × 10^5 CFU/mL. The bacterial suspension and the lantibiotic were added to 96-well microplates at a ratio of 1:1. The microplates were incubated overnight at 37 °C. The lowest concentration at which no visible growth was observed, was considered MIC.

[1] = test system: M. luteus ATCC 10240 and methicillin-sensitive Staphylococcus aureus (MSSA) ATCC 25923; experiment: MIC comparison of variants with wild-type roseocin, both strains; type: cell-based, Micrococcus luteus; Staphylococcus aureus; settings: M. luteus ATCC 10240 and MSSA ATCC 25923, in combination with wild-type Rosβ
Protocol: as §1

M. luteus ATCC 10240 [2] = experiment: MIC by micro broth-dilution method; type: cell-based, Micrococcus luteus; settings: for MIC against M. luteus ATCC 10240: micro broth-dilution, Mueller Hinton Broth, 2 × 10^5 CFU/mL mixed 1:1 with lantibiotic, BSA-treated 96-well plates, overnight 37 °C, lowest concentration with no visible growth, Rosα (variant) with wild-type Rosβ
Protocol: as §1

M. luteus ATCC 10240 [3] = experiment: Agar diffusion assay in synergism with Rosβ; type: cell-based, Micrococcus luteus; settings: nutrient agar, leader removed with proteinase K, 4 μg, 2 μg and 1 μg with equal amount of Rosβ
Protocol: Overnight 10 mL culture of Micrococcus luteus (ATCC 10240), grown in nutrient broth, was diluted to 0.1 OD600 in the fresh 5 mL nutrient broth. The 1 μL/mL of the culture was used for the inoculation in nutrient agar before plating. The culture was added in bearable to touch media. The nutrient agar culture plates were used for checking the activity of Rosα variant peptides and wild type as a positive control, in synergism with Rosβ in a 1:1 ratio.
Alpha variant precursor peptides were cleaved with proteinase K to obtain their bioactive form, as described earlier (Singh et al. 2020) and were spotted with Rosβ in nutrient agar culture plate, in a dose-dependent manner i.e 1 µg, 2 µg, 4 µg (each).

[4] = compared with wild-type Rosα, in combination with wild-type Rosβ

Substance | MIC against MSSA ATCC 25923 (MSSA ATCC 25923) | Change of MIC / inhibitory activity relative to wild-type roseocin (in words) [1] | Change of MIC / inhibitory activity relative to wild-type roseocin (in words) ([1]; listed as RosαL8W) | Fold change of MIC against M. luteus ATCC 10240 relative to wild-type (M. luteus ATCC 10240 [2]; [4]) | MIC against M. luteus ATCC 10240 (M. luteus ATCC 10240 [2]) | Zone of inhibition compared to wild type Rosα (M. luteus ATCC 10240 [3]) | Fold change of MIC against MSSA ATCC 25923 relative to wild-type (MSSA ATCC 25923; [4]) | Change of MIC / inhibitory activity relative to wild-type roseocin (in words) ([1]; listed as RosαL8F)
GAGSGVLGTWGCCSCLPWYSGWTVCGLACNPGKPCKN (also: bicyclic or more (positions not given here)) [Roseocin L8W, Rosα variant L8W, modified by RosM, tested in combination with wild-type Rosβ] | 2 µM | improvement in the MIC | significantly improved inhibitory activity | two-fold lower MIC | 0.25 µM | – | – | –
INGAGSGVLGTLGCCSCLPWYSGWTVCGLACNPGKPCKN (also: bicyclic or more (positions not given here)) [Roseocin (wild-type)] | 2 µM | – | – | – | 0.5 µM | – | – | –
NGAGSGVLGTFGCCSCLPWYSGWTVCGLACNPGKPCKN (also: bicyclic or more (positions not given here)) [Roseocin L8F, Rosα variant L8F, modified by RosM, tested in combination with wild-type Rosβ] | 0.5 µM | improvement in the MIC | – | – | 0.5 µM | improved significantly | four-fold lower MIC | significantly improved inhibitory activity
NGAGSGVLGTLGCCSCLPWYSGWTQCGLACNPGKPCKN (also: bicyclic or more (positions not given here)) [Roseocin V22Q, Rosα variant V22Q, modified by RosM, tested in combination with wild-type Rosβ] | > 16 µM | loss of potency | – | – | > 8 µM | – | – | –
NGAGSGVLGTLGCCWCLPWYSGWTVCGLACNPGKPCKN (also: bicyclic or more (positions not given here)) [Roseocin S12W, Rosα variant S12W, modified by RosM, tested in combination with wild-type Rosβ] | > 16 µM | no improvement | – | – | 0.5 µM | – | – | –
Nisin [reference compound] | 2 µM | – | – | – | 0.0625 µM | – | – | –
